Data published in PMC11396667, “Design, Synthesis, and Anticancer and Antibacterial Activities of Quinoline-5-Sulfonamides” (Molecules, 2024).
Converted amounts (≈) assume the structure as drawn.

Key:
[1] = system: Staphylococcus aureus ATCC 29213; assay: MIC, microtitration broth method, SA; format: cell-based; conditions: ATCC29213, 24 h, 37 °C, CaMH broth
Excerpt: (§1) Since there is a general decrease in immunity during the treatment of oncological patients, i.e., patients are more susceptible to infectious diseases, it is advantageous if anticancer agents show antimicrobial properties at the same time. Therefore, the effects of the compounds were also investigated against Gram-positive bacteria. For this purpose, the susceptible collection strains of aerobic Staphylococcus aureus ATCC 29213 and facultatively aerobic Enterococcus faecalis ATCC 29212 and resistant clinical isolates of methicillin-resistant S. aureus (MRSA) SA 3202, SA 630 carrying the mecA gene, and vancomycin-resistant isolates of E. faecalis (VRE) 342B, 368, and 725B carrying the vanA gene were selected. Thus, the selection of the studied bacterial strains was adopted following the CLSI ([…]) international reference methodologies.
(§2) The in vitro antibacterial activity of the synthesized compounds was evaluated against representatives of multidrug-resistant bacteria, […] clinical isolates of methicillin-resistant S. aureus: clinical isolates of human origin, MRSA SA 3202, and MRSA SA 630 (National Institute of Public Health, Prague, Czech Republic), carrying the mecA gene. These two clinical isolates were classified as vancomycin-susceptible (but with a higher MIC of vancomycin equal to 2 μg/mL (VA2-MRSA). Vancomycin- and methicillin-susceptible S. aureus ATCC 29213 and vancomycin-susceptible Enterococcus faecalis ATCC 29212, obtained from the American Type Culture Collection, were used as the reference and quality control strains. Three vanA gene-carrying vancomycin-resistant isolates of E. faecalis (VRE 342B, VRE 368, VRE 725B) (Department of Infectious Diseases and Microbiology, Faculty of Veterinary Medicine, University of Veterinary Sciences Brno, Czech Republic) were provided by Oravcova et al..
(§3) The minimum inhibitory concentrations (MICs) were evaluated by the microtitration broth method according to the CLSI, with some modifications. The compounds were dissolved in DMSO (Sigma, St. Louis, MO, USA) to obtain a concentration of […] and diluted in a microtitration plate in an appropriate medium, i.e., Cation-Adjusted Mueller–Hinton Broth (CaMH, Oxoid, Basingstoke, UK) for staphylococci, and Brain Heart Infusion Broth (BHI, Oxoid) for enterococci to reach the final concentration of 256–0.125 µg/mL. Microtiter plates were inoculated with test microorganisms so that the final concentration of bacterial cells was 10^5. Ampicillin, oxacillin, and ciprofloxacin (Sigma) were used as reference drugs. A drug-free control and a sterility control were included. The plates were incubated for 24 h at 37 °C for staphylococci and enterococci. […] The experiments were repeated three times.

[2] = system: methicillin-resistant S. aureus SA 630; assay: MIC, microtitration broth method, MRSA2; format: cell-based; conditions: Staphylococcus aureus; 24 h, 37 °C, CaMH broth
Excerpt: as §1, §2, §3

[3] = system: methicillin-resistant S. aureus SA 630; assay: MBC, agar aliquot subculture method, MRSA2; format: cell-based; conditions: Staphylococcus aureus; 99.9% decrease in CFU, 24 h, 37 °C
Excerpt: (§4) The activities of the individual derivatives were expressed as minimum inhibitory concentrations (MICs) and minimum bactericidal concentrations (MBCs) and are shown in Table 3 together with the values of the antibiotics used as standards for comparison. […] MBC values of bactericidal compounds are indicated in bold in Table 3.
(§5) For the above-mentioned strains/isolates, the agar aliquot subculture method was used as a test for bactericidal agents. After the MIC value determination, the inoculum was transferred to CaMH (Oxoid) for staphylococci, and BHI (Oxoid) for enterococci medium using a multipoint inoculator. The plates were incubated in a thermostat at 37 °C for 24 h. The lowest concentration of test compound at which ≤5 colonies were obtained was then evaluated as MBC, corresponding to a 99.9% decrease in CFU relative to the original inoculum.

[4] = system: methicillin-resistant S. aureus SA 3202; assay: MBC, agar aliquot subculture method, MRSA1; format: cell-based; conditions: Staphylococcus aureus; 99.9% decrease in CFU, 24 h, 37 °C
Excerpt: as §4, §5

[5] = system: Staphylococcus aureus ATCC 29213; assay: MBC, agar aliquot subculture method, SA; format: cell-based; conditions: ATCC29213, 99.9% decrease in CFU, 24 h, 37 °C
Excerpt: as §4, §5

[6] = system: methicillin-resistant S. aureus SA 3202; assay: MIC, microtitration broth method, MRSA1; format: cell-based; conditions: Staphylococcus aureus; 24 h, 37 °C, CaMH broth
Excerpt: as §1, §2, §3

S. aureus ATCC 29213 = assay: MTT assay of bacterial respiratory activity; format: cell-based, Staphylococcus aureus; conditions: S. aureus ATCC 29213
Excerpt: The MTT assay can be used to assess cell growth by measuring respiration. Bacterial cell respiratory activity (which is ultimately reflected in their viability) of less than 70% after exposure to the MIC values for each test compound is considered as a positive result for this test. This low level of cellular oxidative metabolism indicates inhibition of cell growth by inhibition of respiration. The lowest multiples of the MIC values by which inhibition of S. aureus ATCC 29213 viability [%] greater than 70% was achieved are shown in Table 4. […] Therefore, the antibacterial activity of the discussed compounds cannot be explained solely on the basis of respiration inhibition, so it is very difficult to draw a conclusion regarding the actual mechanism of action, since 8-HQs are multi-target agents, i.e., they affect several different targets at once (as discussed in the section dedicated to anticancer activity), which subsequently leads to the death of the treated resistant microorganisms.
Compounds were prepared as previously stated and diluted in CaMH broth for S. aureus to achieve the desired final concentrations. S. aureus bacterial suspension in sterile distilled water at 0.5 McFarland was diluted 1:3. Inocula were added to each well by multi-inoculator. Diluted mycobacteria in broth free from inhibiting compounds were used as the growth control. All compounds were prepared in duplicate. Plates were incubated at 37 °C for 24 h for S. aureus. After the incubation period, 10% well volume of MTT (3-(4,5-dimethylthiazol-2-yl)-2,5-diphenyltetrazolium bromide) reagent (Sigma) was mixed into each well and incubated at 37 °C 1 h for S. aureus. Then, 100 µL of 17% sodium dodecyl sulphate in 40% dimethylformamide was added to each well. The plates were read at 570 nm. The absorbance readings from the cells grown in the presence of the tested compounds were compared with uninhibited cell growth to determine the relative percent inhibition. The percent inhibition was determined through MTT assay. The percent viability is calculated through the comparison of a measured value and that of the uninhibited control: % viability = OD570E/OD570P × 100, where OD570E is the reading from the compound-exposed cells, while OD570P is the reading from the uninhibited cells (positive control). Cytotoxic potential is determined by a percent viability of <70% [81, 82].

[7] = system: Enterococcus faecalis ATCC 29212; assay: MIC, microtitration broth method, EF; format: cell-based; conditions: ATCC29212, 24 h, 37 °C, BHI broth
Excerpt: as §1, §2, §3

[8] = system: Enterococcus faecalis ATCC 29212; assay: MBC, agar aliquot subculture method, EF; format: cell-based; conditions: ATCC29212, 99.9% decrease in CFU, 24 h, 37 °C
Excerpt: as §4, §5

[9] = system: methicillin-resistant S. aureus SA 3202; set-up: method as in PMID 25692135; conditions: isolate classified as vancomycin-susceptible (VA2-MRSA); ref [76]; cited from earlier work
[10] = system: methicillin-resistant S. aureus SA 630; set-up: method as in PMID 25692135; conditions: isolate classified as vancomycin-susceptible (VA2-MRSA); ref [76]; cited from earlier work

| Structure (SMILES) | MIC [1] [µM] | MIC [2] [µM] | MBC [3] [µM] | MBC [4] [µM] | MBC [5] [µM] | MIC [6] [µM] | Conc.: lowest multiple of MIC with at least 70% inhibition of respiratory activity (S. aureus ATCC 29213) | MIC [7] [µM] | MBC [8] [µM] | MIC of vancomycin, MRSA SA 3202 [9] [µg/mL] | MIC of vancomycin, MRSA SA 630 [10] [µg/mL] |
| --- | --- | --- | --- | --- | --- | --- | --- | --- | --- | --- | --- |
| Cc1onc(-c2ccccc2)c1C(=O)N[C@@H]1C(=O)N2[C@@H]1SC(C)(C)[C@@H]2C(=O)O [OXA, oxacillin, reference compound] | 1.25 (≈ 0.502 µg/mL) | 29.7 (≈ 11.9 µg/mL) | 29.7 (≈ 11.9 µg/mL) | 79.8 (≈ 32 µg/mL) | 1.25 (≈ 0.502 µg/mL) | 79.8 (≈ 32 µg/mL) | – | – | – | – | – |
| CC1(C)S[C@@H]2[C@H](NC(=O)[C@H](N)c3ccccc3)C(=O)N2[C@H]1C(=O)O [AMP, ampicillin, reference compound] | 5.72 (≈ 2 µg/mL) | > 45.8 | > 45.8 | > 45.8 | 5.72 (≈ 2 µg/mL) | > 45.8 | 16× MIC (>16× MBC) | 2.81 (≈ 0.982 µg/mL) | 2.81 (≈ 0.982 µg/mL) | – | – |
| CN[C@H](CC(C)C)C(=O)N[C@H]1C(=O)N[C@@H](CC(N)=O)C(=O)N[C@H]2C(=O)N[C@H]3C(=O)N[C@H](C(=O)N[C@H](C(=O)O)c4cc(O)cc(O)c4-c4cc3ccc4O)[C@H](O)c3ccc(c(Cl)c3)Oc3cc2cc(c3O[C@@H]2O[C@H](CO)[C@@H](O)[C@H](O)[C@H]2O[C@H]2C[C@](C)(N)[C@H](O)[C@H](C)O2)Oc2ccc(cc2Cl)[C@H]1O [vancomycin] | – | – | – | – | – | – | – | – | – | 2 | 2 |
